The text below walks through data of the supplement of paper PMC3493320.

Each structure is given as a SMILES string. A value given as a limit tells only on which side of the number the result lay.

Usually IC50 stands for the concentration that inhibits the measured activity by half. The low end stands for inhibition by little substance, the high end for a need for much substance.

The test has as its system NCI-H295R. The experiment in a line: IC50 (antiproliferative, ATP content). Conditions: 48 h. The method, boiled down:
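Adrenocortical carcinoma cells were plated at 1500 per well in 1536-well plates in serum-free DMEM with ITS supplement, left overnight, then given library compounds by pin transfer at 8 final concentrations spanning 0.6 nM to 46 µM and held 48 h at 37 °C, 5% CO2. ATP was measured as CellTiter-Glo luminescence after 20 min at room temperature and scaled between vehicle and positive-control wells. A four-parameter logistic model was fitted to each series. The IC50 was taken from these fits, and compounds without a concentration response were recorded as above the top dose.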
For `C/C(=C\C(=O)OCCCCCCCCC(=O)O)C[C@@H]1OC[C@H](C[C@@H]2O[C@H]2[C@@H](C)[C@H](C)O)[C@@H](O)[C@H]1O`, the IC50 is above 46 µM. As to `COc1cc(/C=C/C(=O)N2CCN(CC(=O)N3CCCC3)CC2)cc(OC)c1OC.O=C(O)/C=C\C(=O)O`, the IC50 was above 46 µM. Next, `CC(=O)[C@@]1(O)CC[C@H]2[C@@H]3CCC4=CC(=O)CC[C@]4(C)[C@H]3CC[C@@]21C`: above 46 µM. Next, `O=c1[nH]c(=O)n([C@H]2C[C@H](O)[C@@H](CO)O2)cc1/C=C/Br`: above 46 µM. Consider `Cc1ccc(Cl)c(O)c1`, for which the IC50 is above 46 µM. Next, `O=C(O)CCC(=O)O.c1ccc(C2(c3ccccc3)CC2C2=NCCN2)cc1` (stereo unspecified): above 46 µM. Next, `CCN1CCN(C(=O)N[C@@H](C(=O)N[C@@H]2C(=O)N3C(C(=O)[O-])=C(CSc4nnnn4C)CS[C@H]23)c2ccc(O)cc2)C(=O)C1=O.[Na+]`: above 46 µM; `O=C(C(CCC)CCC)O[C@@H]1C[C@H](CC2)[N@@+](C)(C)[C@H]2C1.[Br-]`: above 46 µM; `O=C(O)C(Cc1cc(I)c(O)c(I)c1)c1ccccc1` (stereo unspecified): above 46 µM. Next, `CN1[C@@H]2CC[C@@H]1CC(OC1c3ccccc3CCc3ccccc31)C2.O=C(O)CC(O)(CC(=O)O)C(=O)O` (stereo partly specified): above 46 µM; `CC(=O)Oc1ccc(C(c2ccc(OC(C)=O)cc2)c2ccccn2)cc1`: above 46 µM. Regarding `CN1CCN(CCCN2c3ccccc3Sc3ccc(C(F)(F)F)cc32)CC1.Cl.Cl`, the IC50 is above 46 µM.

`C#C[C@]1(O)CC[C@H]2[C@@H]3CCC4=CC(=O)CC[C@@H]4[C@H]3C(=C)C[C@@]21CC` returned an IC50 above 46 µM.

`CCOCC(O)COc1ccc(NC(=O)CC[S+](C)C)cc1.Cc1ccc(S(=O)(=O)[O-])cc1` (stereo unspecified) registered an IC50 above 46 µM. Next, `CC[N+](C)(CC)CCOC(=O)C(O)(c1ccccc1)c1ccccc1.[Br-]`: above 46 µM. Next, `C[N@@+]1([O-])[C@@H]2CC[C@H]1C[C@@H](OC(=O)C(CO)c1ccccc1)C2` (stereo partly specified): above 46 µM; `O=C(CS(=O)Cc1ccco1)NC/C=C\COc1cc(CN2CCCCC2)ccn1` (stereo unspecified): above 46 µM; `CC(C)(C)c1ccc2c(S(=O)(=O)[O-])c(C(C)(C)C)ccc2c1.[Na+]`: above 46 µM.

For the compound `O[C@@H]3C\C4=C\C[C@@H]1[C@H](CC[C@]2(C)[C@@H](O)CC[C@@H]12)[C@@]4(C)CC3`, the IC50 is above 46 µM. Next, `CC(C)CN(C[C@@H](OP(=O)([O-])[O-])[C@H](Cc1ccccc1)NC(=O)O[C@H]1CCOC1)S(=O)(=O)c1ccc(N)cc1.[Ca+2]`: above 46 µM; `O=C([C@H](C)CS)N(CCC1)[C@@H]1[C@@](O)=O`: above 46 µM. As to `O=[C@](O)[C@@]3(C)[C@@]1([H])[C@@](CCC3)(C)[C@]2([H])C(C=[C@@]([C@@H](C)C)CC2)=CC1`, the IC50 is above 46 µM. Next, `CC[N+](CC)(CC)CCOc1ccc(/C=C/c2ccccc2)cc1.[I-]`: above 46 µM; `CN[C@@H]1[C@@H](O[C@H]2O[C@H](CO)[C@@H](N)[C@H](O)[C@H]2O)O[C@H]2C[C@@H](N)[C@@H](O[C@H]3[C@H](O)[C@@H](O)[C@H](N)C[C@@H]3N)O[C@@H]2[C@@H]1O`: above 46 µM; `Br.CN1[C@@H]2C[C@@H](OC(=O)[C@H](CO)c3ccccc3)C[C@H]1[C@@H]1O[C@@H]12.O.O.O`: above 46 µM.

Compound `CNC[C@H](O)[C@@H](O)[C@H](O)[C@H](O)CO` came in with a 50% inhibitory concentration (IC50) above 46 µM. As to `CN(C)C=Nc1c(I)cc(I)c(CCC(=O)[O-])c1I.[Na+]`, the IC50 was above 46 µM. Next, `CC(O)C(=O)O.CCCCCCCCCCCCCCNCCO`: above 46 µM; `Nc1ncnc2c1ncn2[C@H]1CC[C@@H](CO)O1`: above 46 µM; `O=C(O)C=CC(=O)Nc1ccc(S(=O)(=O)Nc2nccs2)cc1`: above 46 µM.

As for `Clc1ccc2nsnc2c1NC1=NCCN1`, the IC50 was above 46 µM.

`N=C(N)N1CCc2ccccc2C1.N=C(N)N1CCc2ccccc2C1.O=S(=O)(O)O`: the IC50 is above 46 µM. The compound `F[C@]2([C@](C)3CC4)[C@@H](O)C[C@]1(C)[C@@](OC(C)=O)([C@@](C)=O)CC[C@]([H])1[C@@]([H])2CCC3=CC4=O` gave an IC50 above 46 µM. Consider `COc1ccc(S(=O)(=O)N2c3ccc(Cl)cc3[C@@](O)(c3ccccc3Cl)[C@H]2C(=O)N2CCC[C@@H]2C(N)=O)cc1OC`, for which the IC50 was above 46 µM. Turning to `CC(=O)N[C@@H](Cc1ccc(O)cc1)C(=O)O`, the half-inhibitory concentration (IC50) was above 46 µM.

As to `O=C3/C=C4/CC[C@@H]2[C@H](CC[C@]1(C)C(=O)CC[C@H]12)[C@@]4(C)CC3`, the IC50 is above 46 µM. Next, `O=C([O-])c1cc(O)c2c3nc4ccccc4oc-3cc(=O)c2n1.[Na+]`: above 46 µM; `Cn1c(=O)c2[nH]c(Br)nc2n(C)c1=O`: above 46 µM; `CCCc1cc(=O)[nH]c(=S)[nH]1`: above 46 µM. `Cc1ccnc(NS(=O)(=O)c2ccc(N)cc2)n1`: the IC50 is above 46 µM.

Take `CC(C)NCC(O)c1cc(O)cc(O)c1.CC(C)NCC(O)c1cc(O)cc(O)c1.O=S(=O)(O)O` (stereo unspecified): the IC50 was above 46 µM.

Compound `CN1[C@@H]2CC[C@H]1C[C@@H](OC(c1ccccc1)c1ccccc1)C2.CS(=O)(=O)O` yielded an IC50 above 46 µM. Next, `O=P([O-])(O)C(Cl)(Cl)P(=O)([O-])O.[Na+].[Na+]`: above 46 µM. `O=C1N=C2SCCN2C(=O)C1Cc1ccc(Cl)cc1` (stereo unspecified) displayed an IC50 above 46 µM.

For the compound `O=C1OC2(c3cc(Br)c([O-])cc3Oc3c2cc(Br)c([O-])[c]3[Hg][OH])c2ccccc21.[Na+].[Na+]` (stereo unspecified), the IC50 is above 46 µM.

The compound `CCCNC(C)C(=O)Nc1c(C)csc1C(=O)OC.Cl` (stereo unspecified) came in with an IC50 above 46 µM.

For the compound `CC(O)CN(C)C` (stereo unspecified), the 50% inhibitory concentration (IC50) was above 46 µM. Turning to `CC(=O)OC[C@H]1O[C@@](COC(C)=O)(O[C@H]2O[C@H](COC(C)=O)[C@@H](OC(C)=O)[C@H](OC(C)=O)[C@H]2OC(C)=O)[C@@H](OC(C)=O)[C@@H]1OC(C)=O`, the IC50 is above 46 µM.

As for `CCCCC(CC)COC(=O)CC(C(=O)OCC(CC)CCCC)S(=O)(=O)[O-].[Na+]` (stereo unspecified), the IC50 is above 46 µM. Next, `CCN(CC)CCOC(=O)c1cccnc1.O=C(O)CC(O)(CC(=O)O)C(=O)O`: above 46 µM; `Cc1cccc(C)c1NC1=NCCCS1`: above 46 µM; `CCCNC(C)(C)COC(=O)c1ccccc1.Cl`: above 46 µM.

Compound `OCCN(CCO)c1nc(N2CCCCC2)c2nc(N(CCO)CCO)nc(N3CCCCC3)c2n1` registered an IC50 above 46 µM. On to `Cc1cccc(C)c1NC(=O)C1CCCCN1C.Cl` (stereo unspecified), for which the IC50 is above 46 µM. In turn, `Cl.Cn1c(NCCN(CCO)CCCc2ccc([N+](=O)[O-])cc2)cc(=O)n(C)c1=O` yielded an IC50 above 46 µM. Compound `CCCCC1C(=O)N(c2ccccc2)N(c2ccc(O)cc2)C1=O` (stereo unspecified) had an IC50 above 46 µM.

In the case of `O=C(O)c1cccnc1Nc1cccc(C(F)(F)F)c1`, the IC50 was above 46 µM.

`C[C@H](CCC(=O)O)[C@H]1CC[C@H]2[C@@H]3[C@H](O)C[C@@H]4C[C@H](O)CC[C@]4(C)[C@H]3CC[C@]12C`: the IC50 was above 46 µM. Next, `CC[C@H](C)C(=O)O[C@H]1C[C@H](O)C=C2C=C[C@H](C)[C@H](CC[C@@H](O)C[C@@H](O)CC(=O)[O-])[C@H]21.[Na+]`: above 46 µM; `CC(=O)NC(=O)c1ccccc1O`: above 46 µM; `Cc1cccc(Nc2ccncc2S(=O)(=O)NC(=O)NC(C)C)c1`: above 46 µM.

In turn, `CC(CN(C)C)C(C)(O)Cc1ccc(Cl)cc1.Cl` (stereo unspecified) yielded an IC50 above 46 µM.

As to `COc1ccc(/C=C/C(=O)O)cc1`, the IC50 is above 46 µM. Regarding `CN1C(CCl)Nc2cc(Cl)c(S(N)(=O)=O)cc2S1(=O)=O` (stereo unspecified), the IC50 was above 46 µM. Next, `OC1OC[C@@H](O)[C@H](O)[C@@H]1O` (stereo partly specified): above 46 µM; `Cl.O=C1NCC2(CCN(CCc3ccccc3)CC2)O1`: above 46 µM.

Regarding `S=C=S`, the IC50 was above 46 µM. Next, `CCN1CCN(c2cc3c(cc2F)c(=O)c(C(=O)O)cn3C2CC2)CC1`: above 46 µM. The compound `O=[C@](CO)[C@](CC2)(O)[C@](CC1)(C)[C@]2([H])[C@@](CC4)([H])[C@@]1([H])[C@](CC3)(C)C4=CC3=O` displayed an IC50 above 46 µM. Next, `CC(C)(C)C(=O)OCOC(=O)[C@@H]1N2C(=O)[C@@H](NC(=O)[C@H](N)c3ccccc3)[C@H]2SC1(C)C`: above 46 µM; `CNC(=O)OCc1cccc(COC(=O)NC)n1`: above 46 µM. `F[Si-2](F)(F)(F)(F)F.[NH4+].[NH4+]` came in with an IC50 above 46 µM. Next, `CCCCN(CCCC)CCCOC(=O)c1ccc(N)cc1`: above 46 µM; `C[C@]12CCC(=O)C[C@@H]1CC[C@@H]1[C@@H]2CC[C@]2(C)[C@@H](O)CC[C@@H]12`: above 46 µM; `CC(C)(Oc1ccc(C2CCCc3ccccc32)cc1)C(=O)O` (stereo unspecified): above 46 µM.

On to `FC(F)(F)C(F)(F)C(F)(F)C(F)(F)C(F)(F)C(F)(F)C(F)(F)C(F)(F)Br`, for which the 50% inhibitory concentration (IC50) is above 46 µM. Take `CCn1cc(C(=O)O)c(=O)c2cc(F)c(N3CCNCC3)cc21`: the 50% inhibitory concentration (IC50) is above 46 µM. On to `COc1ccc(C=NNC(=O)c2ccncc2)c(C(=O)O)c1OC`, for which the IC50 was above 46 µM. Regarding `O=C(O[C@H]1C[C@H]2CC3C[C@@H](C1)N2CC3=O)c1c[nH]c2ccccc12`, the IC50 was above 46 µM. Next, `CO[C@H]1O[C@@H]2O[C@@]3(C)CC[C@H]4[C@H](C)CC[C@@H]([C@H]1C)[C@@]24OO3`: above 46 µM.

Consider `COc1cc(O)cc(O)c1`, for which the IC50 was above 46 µM.
